Measurements taken from patent publication US20240130999A1, “Inhibition of SLC4A4 in the Treatment of Cancer” (VIB VZW, priority 2021, published 2024).

Experiments:
KPC orthotopic tumors [1] = experiment: DIDS treatment of mice bearing orthotopic KPC tumors (tumor growth, tumor weight); type: in vivo, mouse; details: 15 mg/kg DIDS i.p. bi-daily for 10 days
Method: C57BL6/N were injected subcutaneously in the right flank with 1*10^6 Panc02 cells (pancreatic cancer cell line), 2*10^6 KP cells (lung cancer cell line), 0.8*10^6 KR158B cells (glioblastoma cell line), or 5*106 CMT-93 cells (colorectal cancer cell line) in 200 μl. Tumor growth was monitored by measuring the perpendicular diameters of tumors every other day and mice were sacrificed at a humane endpoint. FVB mice were injected orthotopically in the head of the pancreas with 10′000 KPC cells in 20 μl. Body weight was monitored and mice were sacrificed at a humane endpoint. Alternatively, FVB mice were injected subcutaneously in the right flank with 0,5*10^6 KPC cells in 200 μl. Tumor growth was monitored by measuring the perpendicular diameters of tumors every other day and mice were sacrificed at a humane endpoint. For immunotherapy treatment the mice were treated intraperitoneally (i.p.) with 10 mg/kg of either control IgG, anti-PD-1 (αPD-1), anti-PDL1 (αPDL1), or anti-CTLA-4 (αCTLA-4) antibodies (3×/week). For CD8 depletion mice were injected i.p. with an anti-CD8 antibody (10 mg/kg) 3 days before tumor inoculation and then 1 time per week. For in vivo slc4a4 inhibition, mice were treated with 15 mg/kg of 4,4′-Diisothiocyano-2,2′-stilbenedisulfonic acid (DIDS) i.p. bi-daily for a period of 10 days. […]

KPC orthotopic tumors [2] = experiment: FACS analysis of immune infiltrate in orthotopic KPC tumors of DIDS-treated mice; type: in vivo, mouse; details: WT KPC orthotopic tumors, DIDS vs DMSO, flow cytometry
Method: C57BL6/N were injected subcutaneously in the right flank with 1*10^6 Panc02 cells (pancreatic cancer cell line), 2*10^6 KP cells (lung cancer cell line), 0.8*10^6 KR158B cells (glioblastoma cell line), or 5*106 CMT-93 cells (colorectal cancer cell line) in 200 μl. Tumor growth was monitored by measuring the perpendicular diameters of tumors every other day and mice were sacrificed at a humane endpoint. FVB mice were injected orthotopically in the head of the pancreas with 10′000 KPC cells in 20 μl. Body weight was monitored and mice were sacrificed at a humane endpoint. Alternatively, FVB mice were injected subcutaneously in the right flank with 0,5*10^6 KPC cells in 200 μl. Tumor growth was monitored by measuring the perpendicular diameters of tumors every other day and mice were sacrificed at a humane endpoint. For immunotherapy treatment the mice were treated intraperitoneally (i.p.) with 10 mg/kg of either control IgG, anti-PD-1 (αPD-1), anti-PDL1 (αPDL1), or anti-CTLA-4 (αCTLA-4) antibodies (3×/week). For CD8 depletion mice were injected i.p. with an anti-CD8 antibody (10 mg/kg) 3 days before tumor inoculation and then 1 time per week. For in vivo slc4a4 inhibition, mice were treated with 15 mg/kg of 4,4′-Diisothiocyano-2,2′-stilbenedisulfonic acid (DIDS) i.p. bi-daily for a period of 10 days. Antibodies: Rat serum IgG (14131) (Sigma-Aldrich); Ultra-LEAF™ Purified PD-1anti-mouse (CD279) RMP1-14 (BioLegend); InVivoMAb anti-mouse CTLA-4 (CD152) (BioCell); InVivoMAb anti-mouse CD8α (BioCell); InVivoMab anti-mouse PD-L1 (B7-H1) (BioCell).
Mice were sacrifice by cervical dislocation and the tumor were harvested in cold PBS. Tumors were minced in alpha MEM (Lonza) containing 0,085 mg/ml Collagenase V (Sigma), 0,125 mg/ml Collagenase D (Roche) and 0,1 mg/ml Dispase (Gibco), and incubated in the same solution for 30 minutes at 37° C. The digested tissues were filtered using a 70-μm pore sized strainer and cells were centrifuged 5 minutes at 300 xg. Red blood cell lysis was performed by using a home-made red blood cell lysis buffer (150 mM NH4Cl, 0.1 mM EDTA, 10 mM KHCO3, pH 7.4. Single cells were resuspended in FACS buffer (PBS containing 2% FBS and 2 mM EDTA) and incubated for 15 minutes with Mouse BD Fc Block purified anti-mouse CD16/CD32 mAb (BD-Pharmingen) and stained for 30 minutes at 4° C. with the following antibodies: Fixable viability dye (eFluor™ 450 or eFluor™ 506, 1:500),CD45 (PE, 1:200), TCRβ (FITC, 1:300), CD4 (PercPcy5.5, 1:400), CD8 (APC-cy7, 1:300), IFNγ (PE-cy7, 1:100), Foxp3 (APC, 1:100), TBet1 (BV421, 1:50)-from BD Biosciences. Cells were subsequently washed and resuspended in FACS buffer before FACS analysis by a FACS Canto II (BD Biosciences). Data was analyzed by Flowio (TreeStar).

O=S(=O)(O)c1cc(N=C=S)ccc1C=Cc1ccc(N=C=S)cc1S(=O)(=O)O [DIDS, 4,4′-diisothiocyano-2,2′-stilbenedisulfonic acid] was tested, and the “tumor reduction upon treatment” value (KPC orthotopic tumors [1]; Slc4a4-KD orthotopic KPC tumors) was “no differences in tumor reduction”, the tumor growth (KPC orthotopic tumors [1]; wild-type (control, NT) orthotopic KPC tumors) was “reduction in tumor growth” and the “CD8+ T cells infiltration” value (KPC orthotopic tumors [2]) was “increase”. For the same compound, the “CD8+/CD4+ T cell ratio” value (KPC orthotopic tumors [2]) was “increase”, the “IFNγ expression of CD8+ T cells” value (KPC orthotopic tumors [2]) was “increase” and the “number of CD4+ T cells” value (KPC orthotopic tumors [2]) was “no differences”. For the same compound, the “number of Treg” value (KPC orthotopic tumors [2]) was “no differences”.
